# Data as given in US6403347B1, “HIV integrase inhibitors” (Merck & Co., Inc., priority 1999, dated 2002).
# Read-outs that look alike come from different tables or passages of the source.
# Columns and labels:
# HIV integrase = HIV integrase (Human immunodeficiency virus type 1 group M subtype B, UniProt P12497); assay: Strand transfer assay for HIV integrase (microtiter assay, ligation of processed donor DNA to nicked host DNA)
# Experimental: Strand Transfer Assay for HIV Integrase
# A microtiter assay for ligation of processed donor (HIV) DNA to unspecific, nicked host DNA was conducted according to Hazuda, D. J. et al., Nucl. […] To assay inhibition of such strand transfer by HIV integrase, the reaction was conducted with inhibition having various concentrations in the range of 0.75 to 100 μM.
# HIV-1 integrase = HIV-1 integrase (Human immunodeficiency virus type 1 group M subtype B, UniProt P12497); assay: HIV integrase substrate cleavage (trimming of the 3′ end of HIV long terminal repeat terminus)
# Experimental: HIV Integrase Substrate Cleavage
# An assay for trimming of the 3′ and of HIV long terminal repeat terminus by HIV-1 integrase was conducted according to LaFemina, R. L. et al., J. Virol 10, 5624 (1991), herein incorporated by reference for these purposes. To assay inhibition of HIV integrase substrate cleavage, the reaction was conducted with inhibitor having various concentrations in the range of 0.75 to 100 μM.
smiles,measurement,setting,value
"CC1Oc2cc3c(-c4c(O)cc(O)c5c(O)c6c(cc45)OC(C)C(C)C6=O)c(O)cc(O)c3c(O)c2C(=O)C1C (single isomer, unassigned) [Compound A]",IC50,HIV integrase,12 µM
same,IC50,HIV-1 integrase,2 µM
"CC1Oc2cc3c(-c4c(O)cc(O)c5c(O)c6c(cc45)OC(C)C(C)C6=O)c(O)cc(O)c3c(O)c2C(=O)C1C (single isomer, unassigned) [Compound B]",IC50,"HIV integrase; inhibition of strand transfer by HIV integrase, concentrations 0.75 to 100 μM",12 µM
same,IC50,"HIV-1 integrase; inhibition of HIV integrase substrate cleavage, inhibitor concentrations 0.75 to 100 μM",2 µM
CC1Oc2cc3c(-c4c(O)cc(O)c5c(O)c6c(cc45)OC(C)C(C)C6=O)c(O)cc(O)c3c(O)c2OC(=O)C1C (centres unmarked) [Compound C],IC50,HIV integrase,9 µM
same,IC50,HIV-1 integrase,3 µM
Cc1oc2cc3c(-c4c(O)cc(O)c5c(O)c6c(cc45)OC(C)C(C)C6=O)c(O)cc(O)c3c(O)c2c(=O)c1C (centres unmarked) [Compound D],IC50,HIV integrase,4 µM
same,IC50,HIV-1 integrase,1 µM
COc1cc(O)c2c(OC)c3c(cc2c1-c1c(OC)cc(OC)c2c(OC)c4c(cc12)OC(C)C(C)C4=O)OC(C)C(C)C3=O (centres unmarked) [Compound F],IC50,HIV-1 integrase,40 µM
COc1cc(OC)c2c(OC)c3c(cc2c1-c1c(OC)cc(OC)c2c(OC)c4c(cc12)OC(C)C(C)C4=O)OC(C)C(C)C3=O (centres unmarked) [Compound G],IC50,HIV-1 integrase,60 µM
CC(=O)Oc1cc(OC(C)=O)c2c(OC(C)=O)c3c(cc2c1-c1c(OC(C)=O)cc(OC(C)=O)c2c(OC(C)=O)c4c(cc12)OC(C)C(C)C4=O)OC(C)C(C)C3=O (centres unmarked) [E],IC50,HIV-1 integrase,50 µM
